# Data: patent US8163732B2, “Tricyclic heteroaryl compounds useful as inhibitors of Janus kinase” (Vertex Pharmaceuticals Incorporated, priority 2005, dated 2012)
# Columns and labels:
# JAK-3 = molecular target: T1, JAK-3 (Homo sapiens, UniProt P52333); assay: JAK-3 inhibition assay; type: biochemical
# T1 sequence (P52333 1-1124): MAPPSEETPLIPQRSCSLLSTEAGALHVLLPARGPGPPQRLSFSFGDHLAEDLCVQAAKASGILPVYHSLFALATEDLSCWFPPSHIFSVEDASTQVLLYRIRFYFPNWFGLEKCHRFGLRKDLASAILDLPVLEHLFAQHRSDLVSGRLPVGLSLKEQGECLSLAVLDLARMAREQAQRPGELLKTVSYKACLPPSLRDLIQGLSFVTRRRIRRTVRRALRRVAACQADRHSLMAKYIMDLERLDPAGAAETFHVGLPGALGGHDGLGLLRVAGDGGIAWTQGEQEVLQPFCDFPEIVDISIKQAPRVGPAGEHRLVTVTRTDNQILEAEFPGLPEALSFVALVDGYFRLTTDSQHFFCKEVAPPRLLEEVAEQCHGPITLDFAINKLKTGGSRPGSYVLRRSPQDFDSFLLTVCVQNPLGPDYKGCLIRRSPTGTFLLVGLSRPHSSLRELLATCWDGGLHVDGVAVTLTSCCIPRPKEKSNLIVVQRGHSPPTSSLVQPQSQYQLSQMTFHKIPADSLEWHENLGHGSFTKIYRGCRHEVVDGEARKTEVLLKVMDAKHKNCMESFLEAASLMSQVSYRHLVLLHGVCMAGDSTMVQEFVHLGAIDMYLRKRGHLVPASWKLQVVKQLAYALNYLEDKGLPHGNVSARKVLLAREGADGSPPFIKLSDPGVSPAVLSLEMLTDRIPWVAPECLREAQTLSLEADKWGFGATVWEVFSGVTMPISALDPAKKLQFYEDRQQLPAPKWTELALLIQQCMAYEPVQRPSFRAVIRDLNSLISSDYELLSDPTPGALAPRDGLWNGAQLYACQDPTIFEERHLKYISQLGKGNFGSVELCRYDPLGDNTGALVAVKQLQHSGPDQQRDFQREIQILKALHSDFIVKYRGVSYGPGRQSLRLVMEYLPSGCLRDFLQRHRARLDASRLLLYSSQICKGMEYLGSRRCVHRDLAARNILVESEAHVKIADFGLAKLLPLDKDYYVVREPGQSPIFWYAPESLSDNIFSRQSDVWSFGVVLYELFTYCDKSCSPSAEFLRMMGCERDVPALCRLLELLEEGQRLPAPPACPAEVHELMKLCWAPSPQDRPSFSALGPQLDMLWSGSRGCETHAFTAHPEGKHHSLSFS
# Description: Compounds were screened for their ability to inhibit JAK using the assay shown below. Reactions were carried out in a kinase buffer containing 100 mM HEPES (pH 7.4), 1 mM DTT, 10 mM MgCl2, 25 mM NaCl, and 0.01% BSA.
# Substrate concentrations in the assay were 5 μM ATP (200 μCi/μmole ATP) and 1 μM poly(Glu)4Tyr. Reactions were carried out at 25° C. and 1 nM JAK-3.
# To each well of a 96 well polycarbonate plate was added 1.5 μL of a candidate JAK-3 inhibitor along with 50 μL of kinase buffer containing 2 μM poly(Glu)4Tyr and 10 μM ATP. This was then mixed and 50 μL of kinase buffer containing 2 nM JAK-3 enzyme was added to start the reaction. After 20 minutes at room temperature (25° C.), the reaction was stopped with 50 μL of 20% trichloroacetic acid (TCA) that also contained 0.4 mM ATP. The entire contents of each well were then transferred to a 96 well glass fiber filter plate using a TomTek Cell Harvester. After washing, 60 μL of scintillation fluid was added and ^33P incorporation detected on a Perkin Elmer TopCount. After removing the mean background values for all of the data points, the data were fit using Prism software to obtain a Ki value (app).
# JAK-2 = JAK-2 (Homo sapiens, UniProt O60674); assay: JAK-2 inhibition assay; type: biochemical
# Chain of JAK-2 (O60674 whole entry): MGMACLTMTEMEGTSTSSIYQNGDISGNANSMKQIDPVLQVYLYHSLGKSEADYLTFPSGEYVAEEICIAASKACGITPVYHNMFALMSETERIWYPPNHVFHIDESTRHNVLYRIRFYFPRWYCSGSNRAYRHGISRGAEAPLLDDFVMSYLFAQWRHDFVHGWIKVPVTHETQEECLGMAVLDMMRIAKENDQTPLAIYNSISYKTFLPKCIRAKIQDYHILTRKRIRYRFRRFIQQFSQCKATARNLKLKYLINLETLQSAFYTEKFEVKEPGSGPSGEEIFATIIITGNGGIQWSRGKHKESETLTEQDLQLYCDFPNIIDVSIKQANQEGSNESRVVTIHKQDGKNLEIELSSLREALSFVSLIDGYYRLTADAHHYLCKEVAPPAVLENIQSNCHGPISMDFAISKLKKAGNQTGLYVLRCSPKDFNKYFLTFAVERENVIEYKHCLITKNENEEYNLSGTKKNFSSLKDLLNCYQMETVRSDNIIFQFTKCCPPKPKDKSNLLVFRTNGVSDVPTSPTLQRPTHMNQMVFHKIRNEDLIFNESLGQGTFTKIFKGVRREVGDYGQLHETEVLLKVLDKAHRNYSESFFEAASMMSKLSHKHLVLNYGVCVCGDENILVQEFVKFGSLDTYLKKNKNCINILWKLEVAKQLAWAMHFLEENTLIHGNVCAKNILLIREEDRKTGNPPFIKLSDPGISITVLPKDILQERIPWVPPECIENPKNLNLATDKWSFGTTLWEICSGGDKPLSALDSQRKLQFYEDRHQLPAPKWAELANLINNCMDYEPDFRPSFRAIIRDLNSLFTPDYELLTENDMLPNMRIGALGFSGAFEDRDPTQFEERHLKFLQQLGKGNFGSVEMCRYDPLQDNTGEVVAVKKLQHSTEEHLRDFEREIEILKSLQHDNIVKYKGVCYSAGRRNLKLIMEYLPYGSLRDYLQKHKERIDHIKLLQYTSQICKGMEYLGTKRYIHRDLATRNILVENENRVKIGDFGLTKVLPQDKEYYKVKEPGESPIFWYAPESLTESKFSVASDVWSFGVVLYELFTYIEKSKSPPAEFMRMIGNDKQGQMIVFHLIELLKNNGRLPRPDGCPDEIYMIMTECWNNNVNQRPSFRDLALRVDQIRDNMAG
Structure (SMILES),Ki (JAK-3) [µM],Ki (JAK-2) [µM]
c1ccc(COCC2Nc3ccccc3-c3ccnc4[nH]cc2c34)cc1 (stereo not drawn) [Compound 1],0.25 to 2.5,
c1ccc(COCC2Nc3ccccc3-c3ncnc4[nH]cc2c34)cc1 (stereo not drawn) [Compound 2],> 2.5,> 2.5
c1ccc(C2Nc3ccccc3-c3ncnc4[nH]cc2c34)cc1 (stereo not drawn) [Compound 3],0.25 to 2.5,> 2.5
FC(F)(F)C1Nc2ccccc2-c2ncnc3[nH]cc1c23 (stereo not drawn) [Compound 4],> 2.5,> 2.5
c1ccc(C2Nc3ccccc3-c3ccnc4[nH]cc2c34)cc1 (stereo not drawn) [Compound 5],0.25 to 2.5,
CC(C)(C)C1Nc2ccccc2-c2ccnc3[nH]cc1c23 (stereo not drawn) [Compound 6],0.25 to 2.5,
Fc1ccccc1C1Nc2ccccc2-c2ccnc3[nH]cc1c23 (stereo not drawn) [Compound 7],0.25 to 2.5,< 0.25
CCOC(=O)C1Nc2ccccc2-c2ccnc3[nH]cc1c23 (stereo not drawn) [Compound 8],0.25 to 2.5,0.25 to 2.5
COc1ccccc1C1Nc2ccccc2-c2ccnc3[nH]cc1c23 (stereo not drawn) [Compound 9],0.25 to 2.5,0.25 to 2.5
c1ccc2c(c1)NC(C1CCCCC1)c1c[nH]c3nccc-2c13 (stereo not drawn) [Compound 10],> 2.5,
Fc1cccc(C2Nc3ccccc3-c3ccnc4[nH]cc2c34)c1 (stereo not drawn) [Compound 11],0.25 to 2.5,< 0.25
Fc1ccc(C2Nc3ccccc3-c3ccnc4[nH]cc2c34)cc1 (stereo not drawn) [Compound 12],0.25 to 2.5,0.25 to 2.5
c1ccc2c(c1)NCc1c[nH]c3nccc-2c13 [Compound 13],0.25 to 2.5,0.25 to 2.5
CCC1Nc2ccccc2-c2ccnc3[nH]cc1c23 (stereo not drawn) [Compound 14],0.25 to 2.5,
CC(C)CC1Nc2ccccc2-c2ccnc3[nH]cc1c23 (stereo not drawn) [Compound 15],> 2.5,
CC(C)C1Nc2ccccc2-c2ccnc3[nH]cc1c23 (stereo not drawn) [Compound 16],> 2.5,
Clc1ccccc1C1Nc2ccccc2-c2ccnc3[nH]cc1c23 (stereo not drawn) [Compound 17],0.25 to 2.5,0.25 to 2.5
Fc1cccc(F)c1C1Nc2ccccc2-c2ccnc3[nH]cc1c23 (stereo not drawn) [Compound 18],0.25 to 2.5,< 0.25

Structure (SMILES),Ki (JAK-3) [µM],Ki (JAK-2) [µM]
FC(F)(F)c1ccccc1C1Nc2ccccc2-c2ccnc3[nH]cc1c23 (stereo not drawn) [Compound 19],0.25 to 2.5,0.25 to 2.5
c1ccc(CC2Nc3ccccc3-c3ccnc4[nH]cc2c34)cc1 (stereo not drawn) [Compound 24],0.25 to 2.5,
Fc1ccc(C2Nc3ccccc3-c3ccnc4[nH]cc2c34)c(F)c1F (stereo not drawn) [Compound 29],0.25 to 2.5,
OCCCCC1Nc2ccccc2-c2ccnc3[nH]cc1c23 (stereo not drawn) [Compound 59],> 2.5,
Oc1ccc(C2Nc3ccccc3-c3ccnc4[nH]cc2c34)cc1 (stereo not drawn) [Compound 65],≤ 0.25,
Oc1ccc(C2Nc3ccccc3-c3ccnc4[nH]cc2c34)cc1Br (stereo not drawn) [Compound 77],≤ 0.25,
O=C(O)c1ccc(C2Nc3ccccc3-c3ccnc4[nH]cc2c34)cc1 (stereo not drawn) [Compound 88],> 2.5,
CNC(=O)c1ccc(C2Nc3ccccc3-c3ccnc4[nH]cc2c34)cc1 (stereo not drawn) [Compound 91],> 2.5,
COC(=O)C1(c2ccc([N+](=O)[O-])cc2)Nc2ccccc2-c2ccnc3[nH]cc1c23 (stereo not drawn) [Compound 98],0.25 to 2.5,
COC(=O)C1(c2ccc(O)cc2)Nc2ccccc2-c2ccnc3[nH]cc1c23 (stereo not drawn) [Compound 103],≤ 0.25,
Oc1ccc(C2Nc3ccccc3-c3ccnc4[nH]cc2c34)cc1F (stereo not drawn) [Compound 105],≤ 0.25,
Oc1ccc(C2Nc3ccccc3-c3ccnc4[nH]cc2c34)c(F)c1 (stereo not drawn) [Compound 107],≤ 0.25,
Oc1ccc(C2Nc3ccccc3-c3ncnc4[nH]cc2c34)cc1F (stereo not drawn) [Compound 116],≤ 0.25,
Oc1ccc(C2Nc3ccccc3-c3ncnc4[nH]cc2c34)c(F)c1 (stereo not drawn) [Compound 118],≤ 0.25,
CS(=O)(=O)Nc1ccc(C2Nc3ccccc3-c3ccnc4[nH]cc2c34)cc1 (stereo not drawn) [Compound 123],> 2.5,
O=C1Nc2ccccc2-c2ccnc3[nH]cc(c23)C1c1ccc(O)cc1 (stereo not drawn) [Compound 125],≤ 0.25,
OCc1ccc(C2Nc3ccccc3-c3ccnc4[nH]cc2c34)cc1 (stereo not drawn) [Compound 154],≤ 0.25,
COC(=O)CC1Nc2ccccc2-c2ccnc3[nH]cc1c23 (stereo not drawn) [Compound 156],0.25 to 2.5,
